Data: ChEMBL document CHEMBL4052670, “The selective cytotoxicity of new triazene compounds to human melanoma cells” (Bioorg Med Chem, 2017)

Experiments:
NCCc1ccc(O)c(O)c1 = assay: (§1) Substrate activity at mushroom tyrosinase monophenolase activity by spectrophotometry based Michaelis-Menten plot analysis; settings: Agaricus bisporus
[1] = tested on: N[C@@H](Cc1ccc(O)cc1)C(=O)O; assay: as §1; settings: Agaricus bisporus
O=C(O)Cc1ccc(O)cc1 = assay: as §1; settings: Agaricus bisporus
[2] = Half life in deuterated phosphate buffer at pH 7.8 by 1H-NMR spectra analysis; format: physicochemical
[3] = Stability of the compound in phosphate buffered saline at pH 7.4 assessed as parent compound remaining measured after 8 days by HPLC analysis; format: physicochemical; settings: read-out: Stability
HaCaT = assay: Cytotoxicity against human HaCaT cells after 72 hrs by MTS assay; format: cell-based
[4] = Half life in 80% human plasma by HPLC analysis; format: ADME, cell-free
[5] = Apparent partition coefficient, log P of the compound in 1-octanol/phosphate buffer at pH 7.4 measured after 30 mins by HPLC analysis; format: physicochemical; settings: read-out: LogD7.4
[6] = Cytotoxicity against human MNT1 cells after 72 hrs by MTS assay; format: functional, cell-based; settings: MNT-1, 72 h
B16-F10 = assay: Cytotoxicity against mouse B16F10 cells after 72 hrs by MTS assay; format: functional, cell-based; settings: B16-F10, 72 h
[7] = Prodrug activation assessed as mushroom tyrosinase-mediated compound hydrolysis by measuring half life in presence of 100 U/ml of tyrosinase by HPLC analysis; settings: agaricus bisporus
Mushroom tyrosinase [8] = molecular target: T1, Mushroom tyrosinase (Agaricus bisporus, UniProt O42713+Q00024+C7FF04+C7FF05); assay: Drug metabolism assessed as mushroom tyrosinase-mediated compound hydrolysis by measuring retention time by HPLC method; format: ADME
[9] = Retention time of the compound in phosphate buffered saline at pH 7.4 by HPLC method
Plasma = assay: Retention time of the compound in 80% human plasma by HPLC method; format: ADME, cell-free
[10] = Prodrug activation assessed as mushroom tyrosinase-mediated compound hydrolysis by measuring Pseudo first-order rate constants in presence of 100 U/ml of tyrosinase by HPLC analysis; settings: agaricus bisporus
[11] = Half life in phosphate buffered saline at pH 7.4 by HPLC analysis; format: physicochemical
mushroom tyrosinase [12] = molecular target: T2, mushroom tyrosinase (Agaricus bisporus, UniProt C7FF04+C7FF05+O42713+Q00024); assay: Drug metabolism assessed as mushroom tyrosinase-mediated compound consumption in presence of 100 U/ml of tyrosinase by HPLC method; format: ADME; settings: read-out: Drug metabolism
Mushroom tyrosinase [13] = molecular target: T1, Mushroom tyrosinase; assay: Ratio of Kcat to Km for mushroom tyrosinase-mediated compound oxidation; format: ADME
Mushroom tyrosinase [14] = molecular target: T1, Mushroom tyrosinase; assay: (§2) Drug metabolism assessed as mushroom tyrosinase-mediated compound oxidation by Michaelis-Menten plot analysis; format: ADME
mushroom tyrosinase [15] = molecular target: T2, mushroom tyrosinase; assay: as §2; format: ADME; settings: mushroom tyrosinase
[16] = Prodrug activation assessed as mushroom tyrosinase-mediated compound hydrolysis by measuring Pseudo first-order rate constants in presence of 300 U/ml of tyrosinase by HPLC analysis; settings: agaricus bisporus
[17] = Prodrug activation assessed as mushroom tyrosinase-mediated compound hydrolysis by measuring half life in presence of 300 U/ml of tyrosinase by HPLC analysis; settings: agaricus bisporus
mushroom tyrosinase [18] = molecular target: T2, mushroom tyrosinase; assay: Drug metabolism assessed as mushroom tyrosinase-mediated compound consumption in presence of 300 U/ml of tyrosinase by HPLC method; format: ADME; settings: read-out: Drug metabolism

Sequence of Mushroom tyrosinase (Agaricus bisporus) (C7FF05 whole entry, looked up): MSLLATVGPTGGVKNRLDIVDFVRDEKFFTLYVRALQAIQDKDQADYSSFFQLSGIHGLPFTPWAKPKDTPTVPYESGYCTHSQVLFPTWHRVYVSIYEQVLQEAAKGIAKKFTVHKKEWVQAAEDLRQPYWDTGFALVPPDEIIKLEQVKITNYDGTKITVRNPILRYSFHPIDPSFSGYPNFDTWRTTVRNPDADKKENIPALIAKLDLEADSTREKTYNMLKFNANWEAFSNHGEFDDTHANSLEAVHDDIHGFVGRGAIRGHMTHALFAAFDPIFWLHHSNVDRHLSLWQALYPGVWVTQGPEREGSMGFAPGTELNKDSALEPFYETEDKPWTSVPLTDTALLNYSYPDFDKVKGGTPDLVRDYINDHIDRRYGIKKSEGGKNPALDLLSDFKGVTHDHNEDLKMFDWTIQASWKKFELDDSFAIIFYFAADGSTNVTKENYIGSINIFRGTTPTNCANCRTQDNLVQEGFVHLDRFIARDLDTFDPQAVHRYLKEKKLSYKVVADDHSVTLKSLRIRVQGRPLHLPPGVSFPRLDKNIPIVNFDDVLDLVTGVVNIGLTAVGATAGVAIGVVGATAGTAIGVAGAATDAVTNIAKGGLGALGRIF
Sequence of Mushroom tyrosinase (Agaricus bisporus) (C7FF04 whole entry, looked up): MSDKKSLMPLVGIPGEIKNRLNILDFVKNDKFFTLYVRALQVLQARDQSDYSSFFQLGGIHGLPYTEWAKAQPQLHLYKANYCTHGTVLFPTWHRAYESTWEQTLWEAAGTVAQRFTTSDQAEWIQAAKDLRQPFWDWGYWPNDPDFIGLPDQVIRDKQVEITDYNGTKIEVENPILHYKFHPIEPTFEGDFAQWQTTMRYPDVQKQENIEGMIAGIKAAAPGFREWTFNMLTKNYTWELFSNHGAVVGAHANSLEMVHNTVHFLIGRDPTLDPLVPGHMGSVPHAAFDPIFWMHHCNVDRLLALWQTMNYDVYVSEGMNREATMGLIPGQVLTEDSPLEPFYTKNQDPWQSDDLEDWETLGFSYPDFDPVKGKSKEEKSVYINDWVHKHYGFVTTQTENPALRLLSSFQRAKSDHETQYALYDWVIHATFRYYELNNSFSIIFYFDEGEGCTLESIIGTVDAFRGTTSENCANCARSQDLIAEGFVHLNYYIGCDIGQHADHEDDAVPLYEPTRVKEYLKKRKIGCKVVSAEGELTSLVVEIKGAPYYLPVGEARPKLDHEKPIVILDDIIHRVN
Sequence of Mushroom tyrosinase (Agaricus bisporus) (Q00024 whole entry, looked up): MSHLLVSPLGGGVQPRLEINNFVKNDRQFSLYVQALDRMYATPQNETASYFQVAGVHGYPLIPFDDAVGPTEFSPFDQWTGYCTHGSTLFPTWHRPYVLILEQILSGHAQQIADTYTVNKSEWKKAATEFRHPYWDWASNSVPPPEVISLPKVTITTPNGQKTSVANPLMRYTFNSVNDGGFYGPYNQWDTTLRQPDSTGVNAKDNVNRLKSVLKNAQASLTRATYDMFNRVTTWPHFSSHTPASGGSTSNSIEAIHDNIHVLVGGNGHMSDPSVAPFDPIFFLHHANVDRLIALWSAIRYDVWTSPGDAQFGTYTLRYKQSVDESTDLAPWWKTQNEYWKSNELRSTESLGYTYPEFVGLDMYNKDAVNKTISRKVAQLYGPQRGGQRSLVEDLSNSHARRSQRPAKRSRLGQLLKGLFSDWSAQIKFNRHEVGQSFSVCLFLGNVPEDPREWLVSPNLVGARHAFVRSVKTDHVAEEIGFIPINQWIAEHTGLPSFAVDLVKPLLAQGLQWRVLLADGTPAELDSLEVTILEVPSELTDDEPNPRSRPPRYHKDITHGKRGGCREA
Sequence of Mushroom tyrosinase (Agaricus bisporus) (O42713 whole entry, looked up): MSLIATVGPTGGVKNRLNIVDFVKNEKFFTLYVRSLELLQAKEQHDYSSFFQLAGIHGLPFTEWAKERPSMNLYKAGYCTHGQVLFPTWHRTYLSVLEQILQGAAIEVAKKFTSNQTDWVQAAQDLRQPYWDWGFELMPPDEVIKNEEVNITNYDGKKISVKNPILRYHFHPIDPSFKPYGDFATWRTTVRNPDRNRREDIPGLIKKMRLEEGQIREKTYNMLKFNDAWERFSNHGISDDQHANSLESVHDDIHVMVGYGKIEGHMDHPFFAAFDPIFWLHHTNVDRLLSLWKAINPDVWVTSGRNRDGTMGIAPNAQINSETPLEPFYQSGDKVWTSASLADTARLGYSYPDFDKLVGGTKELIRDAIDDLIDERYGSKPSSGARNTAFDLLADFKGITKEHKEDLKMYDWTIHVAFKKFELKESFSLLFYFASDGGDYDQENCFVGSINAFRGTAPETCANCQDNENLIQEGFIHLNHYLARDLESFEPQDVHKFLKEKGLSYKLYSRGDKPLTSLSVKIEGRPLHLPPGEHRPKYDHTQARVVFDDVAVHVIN

Compound | half-life [2] [h] | IC50 (HaCaT) [µM] | half-life [4] [h] | logD at 0.5 h [5] | IC50 [6] [µM] | IC50 (B16-F10) [µM] | t1/2 [7] [h] | half-life [11] [h] | other results
Mushroom tyrosinase (Agaricus bisporus) (from UniProt O42713+Q00024+C7FF04+C7FF05) |  |  |  |  |  |  |  |  | Km (NCCc1ccc(O)c(O)c1): 280 µM; Km [1]: 250 µM; Km (O=C(O)Cc1ccc(O)cc1): 1910 µM
CCOc1nc(/N=N/N(C)C(=O)Oc2ccc(C(=O)OC)cc2)nc2[nH]cnc12 | 0.4 to 58.3 |  |  |  |  |  |  |  | 
CN(/N=N/c1nc(OCc2ccccc2)c2nc[nH]c2n1)C(=O)c1ccc([N+](=O)[O-])cc1 | 22.1 to 58.3 |  |  |  |  |  |  |  | 
CC(=O)N(C)/N=N/c1nc(OCc2ccccc2)c2nc[nH]c2n1 | 22.1 to 58.3 |  |  |  |  |  |  |  | 
CC(=O)Nc1ccc(OC(=O)N(C)/N=N/c2nc(OCc3ccccc3)c3nc[nH]c3n2)cc1 | 0.4 to 58.3 |  |  |  |  |  |  |  | 
CC(=O)c1ccc(/N=N/N(C)C(=O)CCCCc2ccc(O)cc2)cc1 |  | > 100 | 32.7 | 4 | > 75 | > 75 | 0.0218 |  | remaining at 192 h [3]: 100%
CCOc1nc(/N=N/N(C)C(=O)Oc2ccc([N+](=O)[O-])cc2)nc2[nH]cnc12 | 0.4 to 58.3 |  |  |  |  |  |  |  | 
Nc1ccccc1 [ANILINE] |  |  |  |  |  |  |  |  | Retention time (Mushroom tyrosinase [8]): 2 to 2.1 min; Retention time [9]: 2.4 min; Retention_time (Plasma): 2 min
CC(=O)c1ccc(/N=N/N(C)C(=O)CCc2ccc(O)cc2)cc1 |  | 75 to 150 | 14.6 | 3.05 | > 75 | > 75 | 0.06 to 0.061 | 123 | K [10]: 3.2 ×10⁻³ /s; metabolised (mushroom tyrosinase [12]): 100%
CCOC(=O)c1ccc(/N=N/N(C)C(=O)CCCCc2ccc(O)cc2)cc1 |  | > 150 | 26.3 | 4.5 | > 75 | > 75 | 0.08 |  | remaining at 192 h [3]: 100%
Cn1nnc2c(C(N)=O)ncn2c1=O [TEMOZOLOMIDE] |  |  |  |  | > 75 | > 75 |  |  | 
CN(/N=N/c1ccc(C#N)cc1)C(=O)CCc1ccc(O)cc1 |  | 75 to 150 | 5.8 | 3.4 | > 75 | > 75 | 0.025 | 76 | K [10]: 7.9 ×10⁻³ /s; metabolised (mushroom tyrosinase [12]): 100%
CN(/N=N/c1ccc(Br)cc1)C(=O)CCCCc1ccc(O)cc1 |  | > 75 | 162 | 4.32 | 45.8 | 52.2 | 0.108 |  | remaining at 192 h [3]: 100%
CN(/N=N/c1ccc(C(N)=O)cc1)C(=O)CCc1ccc(O)cc1 |  | 75 to 150 | 48.5 | 2.8 | > 75 | > 75 | 0.0767 to 0.077 | 118 | K [10]: 2.5 ×10⁻³ /s; metabolised (mushroom tyrosinase [12]): 100%
CC(=O)c1ccc(/N=N/N(C)C(=O)CCc2ccc(OC(=O)CCc3ccc(O)cc3)cc2)cc1 |  |  |  |  |  |  | 0.0917 |  | K [10]: 2.1 ×10⁻³ /s
CN(/N=N/c1nc(OCc2ccccc2)c2nc[nH]c2n1)C(=O)Oc1ccc(C(N)=O)cc1 | 0.4 to 58.3 |  |  |  |  |  |  |  | 
CCOc1nc(/N=N/N(C)C(=O)Oc2ccc(S(N)(=O)=O)cc2)nc2[nH]cnc12 | 0.4 to 58.3 |  |  |  |  |  |  |  | 
CN(/N=N/c1nc(OCc2ccccc2)c2nc[nH]c2n1)C(=O)Oc1ccccc1 | 0.4 to 58.3 |  |  |  |  |  |  |  | 
COC(=O)c1ccc(/N=N/N(C)C(=O)CCc2ccc(O)cc2)cc1 |  | 75 to 150 | 7.3 | 3.23 | > 75 | > 75 | 0.041 to 0.0417 | 102 | K [10]: 4.7 ×10⁻³ /s; metabolised (mushroom tyrosinase [12]): 100%
COC(=O)c1ccc(/N=N/N(C)C(=O)CCCCc2ccc(O)cc2)cc1 |  | 75 to 150 | 17.4 | 3.9 | > 75 | > 75 | 0.06 | 124 | Kcat/Km (Mushroom tyrosinase [13]): 13.88 M⁻¹ s⁻¹; Kcat (Mushroom tyrosinase [14]): 0.013 s⁻¹; Vmax (Mushroom tyrosinase [14]): 0.018 µM/min; Km (mushroom tyrosinase [15]): 1080 µM
CN(/N=N/c1nc(OCc2ccccc2)c2nc[nH]c2n1)C(=O)c1cccnc1 | 22.1 to 58.3 |  |  |  |  |  |  |  | 
CN(/N=N/c1ccc(C#N)cc1)C(=O)CCCCc1ccc(O)cc1 |  | 75 to 150 | 11.8 | 4.3 | > 75 | > 75 | 0.07 | 82.5 | Kcat/Km (Mushroom tyrosinase [13]): 1.39 M⁻¹ s⁻¹; Retention_time (Mushroom tyrosinase [8]): 9.8 min; Kcat (Mushroom tyrosinase [14]): 0.009 s⁻¹; Vmax (Mushroom tyrosinase [14]): 0.012 µM/min; Km (mushroom tyrosinase [15]): 860 µM
CN(/N=N/c1nc(OCc2ccccc2)c2nc[nH]c2n1)C(=O)c1ccccc1 | 22.1 to 58.3 |  |  |  |  |  |  |  | 
CN(/N=N/c1ccc(C(N)=O)cc1)C(=O)CCCCc1ccc(O)cc1 |  | 75 to 150 | 55.4 | 3.6 | > 75 | > 75 | 0.0967 | 182 | 
Cc1ccc(/N=N/N(C)C(=O)CCCCc2ccc(O)cc2)cc1 |  | > 150 | 79.7 | 4 | 64.6 | 57.6 | 0.0123 |  | remaining at 192 h [3]: 100%
COC(=O)c1ccc(/N=N/N(C)C(=O)CCc2ccc(OC(=O)CCc3ccc(O)cc3)cc2)cc1 |  |  |  |  |  |  | 0.107 |  | K [10]: 1.8 ×10⁻³ /s
COC(=O)c1ccc(/N=N/N(C)C(=O)CCc2cccc(O)c2)cc1 |  | 75 to 150 | 7.8 | 3.42 | > 75 | > 75 |  | 94.7 | K [16]: 9.1 ×10⁻⁶ /s; Retention_time (Mushroom tyrosinase [8]): 12.3 min; Retention time [9]: 12.5 min; t1/2 [17]: 21.17 h; metabolised (mushroom tyrosinase [18]): 97.5%
CCOC(=O)N(C)/N=N/c1nc(OCc2ccccc2)c2nc[nH]c2n1 | 0.4 to 58.3 |  |  |  |  |  |  |  | 
CN(/N=N/c1ccc(C#N)cc1)C(=O)CCc1cccc(O)c1 |  | 75 to 150 | 2.7 | 3.24 | > 75 | > 75 |  | 60.1 | K [16]: 9.9 ×10⁻⁶ /s; t1/2 [17]: 19.45 h; metabolised (mushroom tyrosinase [18]): 91.1%; Retention_time (Plasma): 8.8 min
CN(/N=N/c1ccc(C#N)cc1)C(=O)Cc1ccc(O)cc1 |  |  | 1.48 | 2.99 |  |  | 0.467 to 0.468 | 48 | 
